Test results taken from the supplement of paper PMC10307832.

Experiments:
Assay in all cases: relative viability (nuclei count vs DMSO), 5 days (fraction); higher = more cells survive
17-AAG + Trametinib = compound: C=CCNC1=C2C[C@@H](C)C[C@H](OC)[C@H](O)[C@@H](C)/C=C(\C)[C@H](OC(N)=O)[C@@H](OC)/C=C\C=C(/C)C(=O)NC(=CC1=O)C2=O [17-AAG] + CC(=O)Nc1cccc(-n2c(=O)n(C3CC3)c(=O)c3c(Nc4ccc(I)cc4F)n(C)c(=O)c(C)c32)c1 [Trametinib] (partner 0.02 µM)
How it was run: (§1)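 Relative viability is defined as nuclei in treated wells over nuclei in vehicle wells. Duplicate plates were run and medians reported. Lung cancer cell lines in 1536-well plates were dosed by pin tool one day after seeding, with one drug or with a fixed anchor-drug dose plus five library-drug doses (not always all listed) in √10 steps, and nuclei were counted after 5 days.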

17-AAG + OSI-027 = compound: C=CCNC1=C2C[C@@H](C)C[C@H](OC)[C@H](O)[C@@H](C)/C=C(\C)[C@H](OC(N)=O)[C@@H](OC)/C=C\C=C(/C)C(=O)NC(=CC1=O)C2=O [17-AAG] + COc1cccc2cc(-c3nc([C@H]4CC[C@H](C(=O)O)CC4)n4ncnc(N)c34)[nH]c12 [OSI-027] (partner 0.5 µM)
How it was run: as §1

17-AAG + Lapatinib = compound: C=CCNC1=C2C[C@@H](C)C[C@H](OC)[C@H](O)[C@@H](C)/C=C(\C)[C@H](OC(N)=O)[C@@H](OC)/C=C\C=C(/C)C(=O)NC(=CC1=O)C2=O [17-AAG] + CS(=O)(=O)CCNCc1ccc(-c2ccc3ncnc(Nc4ccc(OCc5cccc(F)c5)c(Cl)c4)c3c2)o1 [Lapatinib] (partner 2 µM)
How it was run: as §1

17-AAG + Linsitinib = compound: C=CCNC1=C2C[C@@H](C)C[C@H](OC)[C@H](O)[C@@H](C)/C=C(\C)[C@H](OC(N)=O)[C@@H](OC)/C=C\C=C(/C)C(=O)NC(=CC1=O)C2=O [17-AAG] + C[C@]1(O)C[C@@H](c2nc(-c3ccc4ccc(-c5ccccc5)nc4c3)c3c(N)nccn32)C1 [Linsitinib] (partner 1 µM)
How it was run: as §1

Cell Line	relative viability (17-AAG + Trametinib; first compound 0.00128 µM)	relative viability (17-AAG + Trametinib; first compound 0.004048 µM)	relative viability (17-AAG + Trametinib; first compound 0.0128 µM)	relative viability (17-AAG + Trametinib; first compound 0.04048 µM)	relative viability (17-AAG + Trametinib; first compound 0.128 µM)	relative viability (17-AAG + OSI-027; first compound 0.00128 µM)	relative viability (17-AAG + OSI-027; first compound 0.004048 µM)	relative viability (17-AAG + OSI-027; first compound 0.0128 µM)	relative viability (17-AAG + OSI-027; first compound 0.04048 µM)	relative viability (17-AAG + OSI-027; first compound 0.128 µM)	relative viability (17-AAG + Lapatinib; first compound 0.00128 µM)	relative viability (17-AAG + Lapatinib; first compound 0.004048 µM)	relative viability (17-AAG + Lapatinib; first compound 0.0128 µM)	relative viability (17-AAG + Lapatinib; first compound 0.04048 µM)	relative viability (17-AAG + Lapatinib; first compound 0.128 µM)	relative viability (17-AAG + Linsitinib; first compound 0.00128 µM)	relative viability (17-AAG + Linsitinib; first compound 0.004048 µM)	relative viability (17-AAG + Linsitinib; first compound 0.0128 µM)	relative viability (17-AAG + Linsitinib; first compound 0.04048 µM)	relative viability (17-AAG + Linsitinib; first compound 0.128 µM)
201T	0.778	0.729	0.688	0.702	0.682	0.823	1.01	0.443	0.165	0.165	1	1.04	0.991	0.999	0.512	1.06	1.05	1.01	0.985	0.863
A549	–	–	–	–	–	–	–	–	–	–	0.99	0.548	0.129	0.0692	0.0593	0.646	0.487	0.371	0.105	0.0473
A-427	0.799	0.759	0.946	0.419	0.282	0.484	0.502	0.502	0.343	0.181	1.04	1.12	1.05	1.12	0.607	1.12	1.1	1.1	1.1	1.15
ABC-1	–	–	–	–	–	0.393	0.493	0.56	0.508	0.458	0.968	1.03	1.06	1.54	1.12	0.866	0.773	0.876	0.761	0.816
BEN	1.07	1.16	1.31	1.07	0.613	0.337	0.307	0.256	0.232	0.2	0.859	0.726	0.727	0.405	0.204	0.971	0.947	0.911	0.89	0.276
CAL-12T	0.394	0.352	0.319	0.308	0.146	0.564	0.807	0.713	0.411	0.128	0.645	0.598	0.611	0.527	0.334	0.764	0.815	0.73	0.425	0.276
COR-L23	0.664	0.504	0.438	0.158	0.0809	0.853	0.786	0.817	0.661	0.0974	0.769	0.82	1.06	0.852	0.169	0.919	0.952	0.943	0.473	0.138
COR-L 105	0.473	0.406	0.501	0.375	0.335	0.719	0.829	0.704	0.351	0.306	0.352	0.333	0.344	0.406	0.306	0.834	0.895	1	0.644	0.666
Calu-6	–	–	–	–	–	–	–	–	–	–	1.03	1.01	0.861	0.323	0.135	0.86	0.977	0.942	0.353	0.146
